# In patent US8569339B2, “Soluble guanylate cyclase activators” (Boehringer Ingelheim International GmbH, priority 2011, dated 2013):
# Several values for one entry are separate records, joined by “and”; a condition that tells them apart may be missing. Equal values may be shown once.
# What was measured:
# [1] = target: T1, Recombinant human soluble guanylate cyclase (sGC) (Homo sapiens, UniProt Q02153); assay: Molecular assay: activation of heme-free sGC, cGMP detection (CisBio kit); assay type: biochemical; settings: 300 pM heme-free sGC, 37° C., 60 minutes, cGMP formation
# T1 construct: histidine tag (C); made in house; host or cells: Sf9 insect cells (baculovirus coinfection)
# Experimental: The compounds of the invention may be evaluated in the following molecular assay:
# Recombinant human soluble guanylate cyclase (sGC) is purified from Sf9 insect cells coinfected with baculoviruses expressing the alpha 1 or beta 1 subunit of sGC, both with a C-terminal histidine tag. Heme-free sGC is prepared by treating cell lysate with a final concentration of 0.5% Tween 20 prior to purification on a nickel affinity column.
# sGC catalyzes the conversion of guanosine-5′-triphosphate (GTP) to cyclic guanosine monophosphate (cGMP). The activity of sGC is measured in vitro using the commercially available CisBio cGMP detection kit (catalog #62GM2PEB) in a 384 well format. In brief, 300 pM heme-free sGC is incubated in reaction buffer (50 mM MOPS pH 6.8, 0.2 N KOH, 50 mM NaCl, 2 mM MgCl2, 0.1% BSA, 1.25 mM IBMX, 0.25 mM TCEP, 50 nM GTP) in the presence or absence of dilutions of test compounds diluted in DMSO (final concentration of 1%) in a volume of 10 microL at 37° C. for 60 minutes. Undiluted reaction products or an 80-fold dilution of reaction products (10 microL of either) prepared in reaction buffer containing 0.2 mM TCEP and 10 mM EDTA is mixed with 5 microL of d2-cGMP plus 5 microL of Eu^3+cryptate-labeled anti-cGMP, each diluted in buffer containing 0.1 M KPO4 pH 7.5, 0.4 M KF, 20 mM EDTA, 0.2% BSA. After a one hour incubation at room temperature in the dark, the mixtures are quantified on an EnVision plate reader (PerkinElmer) according to manufacturer instructions (laser excitation 337 nm, emission 620 and 665 nm). The ratio at each compound concentration is converted to nM cGMP using the linear portion of a calibration curve. Log compound concentration is plotted against combined undiluted and diluted nM cGMP values to determine the EC50 for each curve.
# Representative compounds of the present invention were tested for activity in the above assay. Preferred compounds have an IC50<5,000 nM and more preferred compounds have an IC50<100 nM in this assay.
# [2] = Assessment of solubility (HT solubility, pION, UV); assay type: physicochemical; settings: incubated 16-19 hours, 1.0% DMSO, 100 uM; for solubility kinetic: pH 4.5 buffer (pION system solution), pH 4.5, aqueous buffer, kinetic from dmso stock, read-out: Sol pH 4.5; for Sol pH 7.4: pH 7.4 buffer
# Experimental: Solubility is measured by the following method.
# DMSO stock samples at 10 mM conc are prepared. […] The samples are pierced and 100 ul of thawed samples are transferred into the PCR plate for analysis. Each sample is run in duplicate at each pH (pH 4.5 and 7.4). Up to 95 samples can be run in replicate at 2 pH's+1 DMSO (blank).
# 2. Preparation of pH 4.5 and 7.4 buffers:
# pH 4.5 buffer: To 12.5 of system solution (pION) qs to 500 mL of distilled water (pH 2.85-2.90); adjust the pH to pH 4.5 with 0.5 N NaOH.
# pH 7.4 buffer: To 12.5 of system solution (pION) qs to 500 mL of distilled water (pH 2.85-2.90); adjust the pH to pH 7.4 with 0.5N NaOH.
# Preparation of UV blank plate:
# 75 ul of buffer (pH 7.4 or pH 4.5) is added to UV plate followed by addition of […] of N-propanol. The solution is mixed and the blank spectrum is read using spectrophotometer.
# Preparation of Reference UV plate:
# 10 ul of each stock sample (including DMSO control) is added to 190 ul of N-propanol to prepare the reference stock plate. Reference stock samples are mixed and 5 ul of each stock sample is added to UV blank plate after it is read spectrophotometrically. The reference stock sample is mixed with blank solution in UV plate and the reference spectrum is read using UV spectrophotometer.
# Preparation of sample for incubation:
# Solubility at pH 7.4: 6 ul of each stock sample (including DMSO control) is added to the storage plate containing 600 ul of pH 7.4 buffer, mixed and incubated for 16-19 hours. The plate is sealed well during the incubation process. The DMSO content in the sample is 1.0%. The concn in deep well plates is 100 uM
# 6 ul of each stock sample (including DMSO control) is added to the deep well plate containing 600 ul of pH 4.5 buffer, mixed and incubated for 16-19 hours. The plate is sealed well during the incubation process. The DMSO content in the sample is 1.0%. The concn in deep well plates is 100 uM
# Preparation of sample UV plate:
# At the end of the incubation period, 100 uL of sample from the storage plate is vacuum filtered using a filter plate. This step wets the filters and the filtrate is discarded. Another 200 ul of the sample from the deep well plate is vacuum filtered using the same filter block but a clean filter plate. 75 ul of the filtrate from the filter plate is transferred to a UV sample plate. 75 ul of N-propanol is added to this UV plate. The solution is mixed and the spectrum is read using the UV spectrophotometer.
# The spectra collected for blank, reference and sample from 250-498 nm is analyzed using pION software. If the sample precipitates out, the solubility is reported as XX μg/ml. If there is no precipitation and the sample is soluble, solubility is reported as […] (YY being the initial concentration of the compound in the sample).
# T1 sequence (Q02108 whole entry partner): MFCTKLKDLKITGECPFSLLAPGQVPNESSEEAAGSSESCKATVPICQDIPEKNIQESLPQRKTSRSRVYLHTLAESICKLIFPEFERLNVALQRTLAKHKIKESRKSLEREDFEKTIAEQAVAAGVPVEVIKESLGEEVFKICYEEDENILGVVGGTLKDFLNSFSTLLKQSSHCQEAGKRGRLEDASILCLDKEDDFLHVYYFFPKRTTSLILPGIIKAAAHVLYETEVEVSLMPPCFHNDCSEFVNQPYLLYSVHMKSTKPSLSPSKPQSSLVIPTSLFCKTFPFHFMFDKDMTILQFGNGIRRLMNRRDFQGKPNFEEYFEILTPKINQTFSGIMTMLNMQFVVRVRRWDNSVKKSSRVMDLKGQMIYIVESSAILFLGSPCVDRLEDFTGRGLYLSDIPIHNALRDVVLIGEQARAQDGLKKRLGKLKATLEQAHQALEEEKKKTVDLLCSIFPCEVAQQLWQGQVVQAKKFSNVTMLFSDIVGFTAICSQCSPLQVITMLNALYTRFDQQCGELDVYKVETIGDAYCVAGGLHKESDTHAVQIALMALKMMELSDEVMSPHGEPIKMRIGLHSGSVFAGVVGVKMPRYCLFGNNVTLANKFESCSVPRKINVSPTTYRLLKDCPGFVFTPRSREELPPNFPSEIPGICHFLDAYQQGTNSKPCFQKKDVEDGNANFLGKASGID
# T1 sequence (Q02153 whole entry): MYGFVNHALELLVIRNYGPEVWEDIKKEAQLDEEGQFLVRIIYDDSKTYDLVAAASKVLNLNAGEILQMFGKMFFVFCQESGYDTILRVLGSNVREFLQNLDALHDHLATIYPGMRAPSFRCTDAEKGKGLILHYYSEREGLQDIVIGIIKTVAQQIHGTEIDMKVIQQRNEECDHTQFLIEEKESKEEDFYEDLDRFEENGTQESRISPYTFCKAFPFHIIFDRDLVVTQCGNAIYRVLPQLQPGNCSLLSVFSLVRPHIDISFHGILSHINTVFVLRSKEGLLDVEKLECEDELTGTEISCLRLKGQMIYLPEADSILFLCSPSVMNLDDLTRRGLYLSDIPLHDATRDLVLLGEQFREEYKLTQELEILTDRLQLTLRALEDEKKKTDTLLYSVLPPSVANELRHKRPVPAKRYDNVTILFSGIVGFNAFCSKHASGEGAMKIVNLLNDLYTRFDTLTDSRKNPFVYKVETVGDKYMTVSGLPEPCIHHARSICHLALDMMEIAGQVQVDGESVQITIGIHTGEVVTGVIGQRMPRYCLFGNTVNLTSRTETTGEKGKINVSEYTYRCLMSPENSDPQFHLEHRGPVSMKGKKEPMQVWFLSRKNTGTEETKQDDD
Structure (SMILES),EC50 [1] [nM],solubility kinetic ([2]; pH 4.5 buffer) [µg/mL],Sol pH 7.4 [2],Sol pH 4.5 ([2]; pH 4.5 buffer) [μg/mL]
Cc1ccc(OCc2ccc3c(c2C)CCN(C)C3)c(-c2cccc(-c3c(C)c(C(=O)O)nn3C)n2)c1 [Compound 78],970,24.1,24.2 μg/mL,–
"CCn1c(C(=O)O)cnc1-c1cccc(-c2cccc(C)c2OCc2ccc3c(c2)CCN(C2CCOCC2)C3)n1 [Compound 63, 3-ethyl-2-[6-[3-methyl-2-[(2-tetrahydropyran-4-yl-3,4-dihydro-1H-isoquinolin-6-yl)methoxy]phenyl]-2-pyridyl]imidazole-4-carboxylic acid]",14,> 78,54.2 μg/mL,–
Cc1ccc(OCc2ccc3c(c2)CCN(Cc2ccccn2)C3)c(-c2cccc(-n3ncc(C(=O)O)c3C(F)(F)F)n2)c1 [Compound 18],0.8,> 59,>59 μg/mL,–
Cc1ccc(OCc2ccc3c(c2)CCN(S(C)(=O)=O)C3)c(-c2cccc(-n3ncc(C(=O)O)c3C(F)(F)F)n2)c1 [Compound 5],33,0.1,>58 μg/mL,–
Cc1ccc(OCc2ccc3c(c2)CCN(C2CCOCC2)C3)c(-c2cccc(-c3c(C)c(C(=O)O)nn3C)n2)c1 [Compound 79],1200,> 80,>80 μg/mL,–
"Cc1ccc(OCc2cc3c(cc2C)CN(C)CC3)c(-c2cccc(-n3ncc(C(=O)O)c3C(F)(F)F)n2)c1 [Compound 62, 1-[6-[2-[(2,7-dimethyl-3,4-dihydro-1H-isoquinolin-6-yl)methoxy]-5-methylphenyl]-2-pyridyl]-5-(trifluoromethyl)pyrazole-4-carboxylic acid]",440,2.8,1.2 μg/mL,–
Cc1ccc(OCc2ccc3c(c2)CCN(C)C3=O)c(-c2cccc(-n3ncc(C(=O)O)c3C(F)(F)F)n2)c1 [Compound 8],280,6.9,>53 μg/mL,–
Cc1cc(CN2CCc3cc(COc4c(C)cccc4-c4cccc(-c5ncc(C(=O)O)n5C)n4)ccc3C2)no1 [Compound 72],27,> 67,>67 μg/mL,–
Cc1ccc(OCc2ccc3c(c2)CCN(C2CCCOC2)C3)c(-c2cccc(-n3ncc(C(=O)O)c3C(F)(F)F)n2)c1 (stereo not shown) [Compound 22],1,> 59,>59 μg/mL,–
Cc1cccc(-c2cccc(-c3c(C)c(C(=O)O)nn3C3CCOCC3)n2)c1OCc1ccc2c(c1)CCN(C1CCOCC1)C2 [Compound 89],700,51.5,>62 μg/mL,–
Cc1ccc(OCc2ccc3c(c2)CCN(C)CC3)c(-c2cccc(-n3ncc(C(=O)O)c3C(F)(F)F)n2)c1 [Compound 40],32,16.3,18.5 μg/mL,–
Cc1ccc(OCc2ccc3c(c2)CCN(C2CC2)C3)c(-c2cccc(-n3ncc(C(=O)O)c3C(F)(F)F)n2)c1 [Compound 12],19,> 54,>54 μg/mL,–
Cc1ccc(OCc2ccc3c(c2)N(C)CCC3)c(-c2cccc(-n3ncc(C(=O)O)c3C(F)(F)F)n2)c1 [Compound 13],79,8.1,>52 μg/mL,–
"Cc1ccc(OCc2ccc3c(c2)CCNC3)c(-c2cccc(-n3ncc(C(=O)O)c3C(F)(F)F)n2)c1 [Compound 4, 1-{6-[5-Methyl-2-(1,2,3,4-tetrahydroisoquinolin-6-ylmethoxy)phenyl]pyridin-2-yl}-5-trifluoromethyl-1H-pyrazole-4-carboxylic acid]",575,17.6,21.7 μg/mL,–
Cc1ccc(OCc2ccc3c(c2)CCN(Cc2nc(C)cs2)C3)c(-c2cccc(-n3ncc(C(=O)O)c3C(F)(F)F)n2)c1 [Compound 29],0.5,12.9,>61 μg/mL,–
Cc1cccc(-c2cccc(-c3ncc(C(=O)O)n3C)n2)c1OCc1ccc2c(c1)CCN(CC1CCCOC1)C2 (stereo not shown) [Compound 73],47,> 67,>67 μg/mL and >66 μg/mL,>66
CCn1cc(CN2CCc3cc(COc4c(C)cccc4-c4cccc(-c5ncc(C(=O)O)n5C)n4)ccc3C2)cn1 [Compound 71],159,> 67,>67 μg/mL,–
Cc1ccc(OCc2ccc3c(c2)CCN(C2CCOCC2)C3)c(-c2cccc(-n3ncc(C(=O)O)c3C(F)(F)F)n2)c1 [Compound 34],8,41.5,41.8 μg/mL,–
Cc1ccc(OCc2ccc3c(c2)CCN(C2CCCC2)C3)c(-c2cccc(-n3ncc(C(=O)O)c3C(F)(F)F)n2)c1 [Compound 17],13,44.3,>68 μg/mL,–
"Cc1ccc(OCc2ccc3c(c2)CCN(C)C3)c(-c2cccc(-n3ncc(C(=O)O)c3C(F)(F)F)n2)c1 [Compound 2, 1-{6-[5-methyl-2-(2-methyl-1,2,3,4-tetrahydroisoquinolin-6-ylmethoxy)phenyl]pyridin-2-yl}-5-trifluoromethyl-1H-pyrazole-4-carboxylic acid]",46,6.5,6.1 μg/mL,–
"Cc1ccc(OCc2ccc3c(c2)CCN(C2CCOC2)C3)c(-c2cccc(-n3ncc(C(=O)O)c3C(F)(F)F)n2)c1 (stereo not shown) [Compound 35, 1-(6-{5-methyl-2-[2-(tetrahydrofuran-3-yl)-1,2,3,4-tetrahydroisoquinolin-6-ylmethoxy]phenyl}pyridin-2-yl)-5-trifluoromethyl-1H-pyrazole-4-carboxylic acid]",7,42.3,43.0 μg/mL,–
Cc1ccc(OCc2ccc3c(c2C)CCN(C2CCOC2)C3)c(-c2cccc(-c3ncc(C(=O)O)n3C)n2)c1 (stereo not shown) [Compound 54],165,> 76,32.6 μg/mL,–
Cc1cccc(-c2cccc(-n3ncc(C(=O)O)c3C)n2)c1OCc1ccc2c(c1)CCN(C1CCOCC1)C2 [Compound 64],21,> 78,>78 μg/mL,–
Cc1ccc(OCc2ccc3c(c2)CCN(CC2CCOC2)C3)c(-c2cccc(-n3ncc(C(=O)O)c3C(F)(F)F)n2)c1 (stereo not shown) [Compound 23],2,> 59,>59 μg/mL,–
